Experiments:
[1] = Assay for plasma protein binding rate (equilibrium dialysis), human plasma; format: in vitro ADME; conditions: dialysis 6 h at 37 °C, read-out: Human (Fu%)
Procedure: 1.1 Preparation of compounds: The compounds prepared in the examples were each dissolved in dimethylsulfoxide to give solutions at a concentration of 10 mmol/L. • 1) The example compounds were each diluted from 10 mmol/L stock solution to 0.2 mmol/L, i.e., 1 µL of the compound was added to 49 µL of DMSO; • 2) 3 µL of 0.2 mmol/L test compounds were added to 597 µL of blood plasma, and the mixtures were vortexed at 1000 rpm for 2 min; • 3) 50 µL of the plasma containing the drug in 2) was taken, 50 µL of PBS was added, and 300 µL of methanol internal standard* was added to serve as a sample T0; • 4) 120 µL of the plasma containing the drug in 2) was taken and added to one side of an HTD device membrane, and 120 µL of PBS was added to the other side of the membrane; a breathable film was covered, and the plasma and the residual sample in 2) were balanced at 37 °C (100 rpm and 5% CO2) for 6 h; • 5) 50 µL of the dialyzed plasma side sample was taken, 50 µL of PBS was added, and 300 µL of methanol internal standard* was added to serve as a sample P; • 6) 50 µL of the dialyzed PBS side sample was taken, 50 µL of blank plasma was added, and 300 µL of methanol internal standard* was added to serve as a sample B; • 7) 50 µL of the plasma containing the drug in 2) was taken, 50 µL of PBS was added, and 300 µL of methanol internal standard* was added to serve as a sample T6; • 8) All samples were vortexed, mixed homogeneously, and then centrifuged at 3220 g for 40 min at 4 °C; • 9) 100 µL of the supernatant and 100 µL of purified water were mixed homogenously for liquid chromatography-mass spectrometry.
An internal standard method was used, and the plasma protein binding rate, recovery rate, and residual percentage were calculated by using Excel according to the ratio of the peak area of the sample to the peak area of the internal standard. Free rate(%) = (RatioB)/(RatioP) × 100% [formula] Binding rate(%) = 100%−Free rate% [formula] Recovery rate(%) = (RatioB + RatioP)/(RatioT0) × 100% [formula] Remaining percentage(%) = (RatioT6)/(RatioT0) × 100% [formula]
RatioB: a ratio of the peak area of the test substance on the PBS side to the peak area of the internal standard; RatioP: a ratio of the peak area of the test substance on the plasma side to the peak area of the internal standard; RatioT6: a ratio of the peak area of the sample after incubation with the test substance for 6 h to the peak area of the internal standard; RatioT0: a ratio of the peak area of the sample after incubation with the test substance for 0 h to the peak area of the internal standard. Table 8. Plasma protein binding rate (Fu%) data for various species of example compounds

CYP1A2 = biological target: T1, CYP1A2 (Homo sapiens, UniProt P05177); experiment: Inhibitory effect on P450 enzymes in vitro (human liver microsomes), CYP1A2; format: in vitro ADME; conditions: probe phenacetin, final concentration 10 µM, substrate phenacetin, read-out: % inhibition rate CYP1A2 (phenacetin)
T1 construct: from tissue; host or cells: human liver microsomes
T1 sequence (P05177 1-516): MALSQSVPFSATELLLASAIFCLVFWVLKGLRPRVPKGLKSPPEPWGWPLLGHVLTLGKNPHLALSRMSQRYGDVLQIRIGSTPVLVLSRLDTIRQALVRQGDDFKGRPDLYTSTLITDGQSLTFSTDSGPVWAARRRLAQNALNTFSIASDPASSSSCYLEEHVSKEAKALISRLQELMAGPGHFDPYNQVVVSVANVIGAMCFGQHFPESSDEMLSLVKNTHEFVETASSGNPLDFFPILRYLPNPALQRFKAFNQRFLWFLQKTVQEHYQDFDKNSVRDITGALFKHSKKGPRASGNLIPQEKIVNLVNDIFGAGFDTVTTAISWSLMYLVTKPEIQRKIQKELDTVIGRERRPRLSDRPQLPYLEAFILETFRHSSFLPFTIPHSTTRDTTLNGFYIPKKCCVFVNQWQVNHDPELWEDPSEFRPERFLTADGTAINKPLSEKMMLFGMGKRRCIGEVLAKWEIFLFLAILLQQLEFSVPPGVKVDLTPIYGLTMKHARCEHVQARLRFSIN
Procedure: 1.1 Preparation of compounds: The compounds prepared in the examples were each dissolved in dimethylsulfoxide to give solutions at a concentration of 2 mmol/L.
1.2 Test methods: • 1) Incubation system: human liver microsomes, a MgCl2 solution, a phosphate buffer solution, and a substrate solution were each added a 96-well deep-well plate and mixed homogenously. In the final incubation system, the concentration of the human liver microsomes was 0.2 mg/mL, and the final concentrations of the MgCl2 solution and the phosphate buffer solution were 5 mM and 100 mM, respectively. • 2) 1 µL of the substrate solution was added to the incubation system, and the final concentrations of CYP1A2 phenacetin, 2C8 paclitaxel […], 2C19 mephenytoin, 2D6 midazolam, and 3A midazolam substrates were 40 µM (phenacetin), 5 µM (paclitaxel), 50 µM (mephenytoin), 10 µM (mephenytoin), 5 µM (midazolam), and 50 µM […], respectively. • 3) 1 µL of the example compound or vehicle (DMSO) was added to the incubation system, and the incubation system was pre-warmed for 5 min in a 37 °C water bath before starting the reaction with 20 µL of 10 mM NADPH solution.
1.3 Sample treatment: Within the designated time (20 min for phenacetin, 10 min for paclitaxel, 20 min for mephenytoin, 20 min for dextromethorphan, 5 min for midazolam, and 10 min for testosterone), 400 µL of methanol containing the internal standard was added to terminate the reaction, and the mixture was vortexed and mixed homogeneously. Then, the deep-well plate was centrifuged at 3220 g and 4 °C for 40 min. 100 µL of the supernatant was transferred into a new plate, and 150 µL of purified water was added. The mixture was mixed homogenously for LC-MS/MS analysis. Table 11. Inhibitory effects of some compounds in the examples on CYP enzymes

SMILES | fraction unbound at 6 h, 1 µM [1] | inhibition at 20 min, 10 µM (CYP1A2)
COc1cc2c(cc1S(=O)(=O)Nc1noc3cc(Cn4cccn4)nc(OC)c13)CCCC2 [Example 2, N-(6-((1H-Pyrazol-1-yl)methyl)-4-methoxyisoxazolo[4,5-c]pyridin-3-yl)-3-methoxy-5,6,7,8-tetrahydronaphthalene-2-sulfonamide] | 0.0099 | 6.02%
COc1ccc2c(c1S(=O)(=O)Nc1noc3cc(Cn4cccn4)nc(OC)c13)OCC2 [Example 9, N-(6-((1H-Pyrazol-1-yl)methyl)-4-methoxyisoxazolo[4,5-c]pyridin-3-yl)-6-methoxy-2,3-dihydrobenzofuran-7-sulfonamide] | 0.0069 | –
COc1ccc2ccoc2c1S(=O)(=O)Nc1noc2cc(Cn3cccn3)nc(OC)c12 [Example 10, N-(6-((1H-Pyrazol-1-yl)methyl)-4-methoxyisoxazolo[4,5-c]pyridin-3-yl)-6-methoxybenzofuran-7-sulfonamide] | 0.0073 | -1.78%
COc1cc2c(cc1S(=O)(=O)Nc1noc3cc(Cn4cccn4)nc(OC)c13)OCC2 [Example 59, N-(6-((1H-Pyrazol-1-yl)methyl)-4-methoxyisoxazolo[4,5-c]pyridin-3-yl)-5-methoxy-2,3-dihydrobenzofuran-6-sulfonamide] | 0.0248 | 1.93%
COc1cc2c(cc1S(=O)(=O)Nc1noc3cc(Cn4cccn4)nc(OC)c13)CCCO2 [Example 76, N-(6-((1H-Pyrazol-1-yl)methyl)-4-methoxyisoxazolo[4,5-c]pyridin-3-yl)-7-methoxy-3,4-dihydro-1H-benzopyran-6-sulfonamide] | 0.0118 | –
